Assay results taken from patent US20140256771A1, “COMPOUNDS THAT MODULATE INTRACELLULAR CALCIUM” (CalciMedica, Inc., priority 2011, published 2014).
Where two headings read alike, the source gives them in different places.

Key:
[1] = test system: RBL-2H3 cells; assay: Fluorescence-based assay of store-operated calcium entry in RBL-2H3 cells; assay type: cell-based, rat; set-up: key to RBL-2H3 (IC50, μmol): A < 0.6 μmol; 0.6 μmol ≦ B ≦ 1.2 μmol; C > 1.2 μmol; — = no fit; settings: thapsigargin store depletion, 50% inhibition of Upslope; for IC50: Rattus norvegicus, RBL-2H3, read-out: RBL-2H3 (IC50, μmol)
Method: B. Fluorescence-based Assay of Store-Operated Calcium Entry in RBL-2H3Cells.
RBL-2H3 cells are obtained from ATCC and maintained in complete medium with 10% FBS at 37° C./6% CO2.
The day prior to performing the assay, RBL-2H3 cells are plated in 50 μL of complete medium in a 384 well plate. Cells are grown at 37° C./6% CO2 overnight and grow to 50-60% confluence by the next day. On the assay day, 1.5 μM Fluo-4-AM dye (Invitrogen) in complete medium is added and incubated for 1 hour at RT. Cells are washed twice in Ca^2+-free HBSS buffer and 35 μL Ca^2+-free HBSS buffer is added to each well. 10 μL of a test compound prepared in a Ca^2+-free HBSS solution at 4.5× of the desired concentration is added to a well and incubated for 5 minutes at RT. 10 μL of thapsigargin prepared in a Ca^2+-free HBSS solution at 5.5× of the desired concentration (5.5 uM) is added to each well and incubated for an additional 25 minutes. The initial baseline fluorescence signal is measured with a FLIPR^384 (Molecular Devices) plate reader. 5 μL of 12× calcium in HBSS (12 mM) is added and changes in cellular fluorescence are measured with the FLIPR^384 plate reader. In each well, the change in the fluorescent signal as a function of time due to calcium entry into the cell is determined by calculating the difference between the fluorescent signal measured 7 seconds after calcium addition and the initial baseline fluorescence signal at time zero (t=0). This parameter is designated Upslope. The IC50 value is calculated as the concentration at which 50% of the Upslope is inhibited.

[2] = target: T1, Orai1/STIM1 (Homo sapiens, UniProt Q96D31); assay: Fluorescence-based assay of store-operated calcium entry in Orai1/STIM1 stable cells; assay type: cell-based; set-up: key to Orai1/STIM1 (IC50, μmol): A < 0.6 μmol; 0.6 μmol ≦ B ≦ 1.2 μmol; C > 1.2 μmol; — = no fit; settings: HEK-293 cells stably expressing human STIM1 and Orai1, 50% inhibition of Peak-Basal fluo-4 signal; for IC50: read-out: Orai1/STIM1 (IC50, μmol)
T1 construct: expressed in transfected cells; host or cells: HEK-293
Method: A. Fluorescence-based Assay of Store-Operated Calcium Entry in Orai1/STIM1 Stable Cells.
Cells stably expressing recombinant human STIM1 and Orai1 are generated by transfecting a human Orai1 expression plasmid (pcDNA3.1-Orai1-cmyc) into HEK-293 cells stably overexpressing human STIM1 (Roos et al. 2005 JCB 169(3): 435-445). Colonies of cells stably expressing both STIM1 and Orai1 proteins are selected and then subcloned by limiting dilution. Cells were cultured at 37° C./6% CO2 in complete medium with 10% FBS and appropriate selection markers.
The day prior to performing the assay Orai1/STIM1 stable cells are plated in 50 μL of complete medium at 90-95% confluence in a 384 well plate. Cells are grown at 37° C./6% CO2 overnight. On the day of the assay, 1.5 μM fluo-4-AM (Invitrogen) in complete medium is added to the cells, which are then incubated for 1 hour at RT. Cells are washed once in Ca^2+-free HBSS (Hank's buffered saline solution) and 35 μl of Ca^2+-free HBSS is added to each well. Test compounds are added to wells in a 10 μL Ca^2+-free HBSS solution, prepared at 4.5× the desired final concentration, and incubated for 30 minutes at RT. The initial baseline fluorescence signal is then measured with a FLIPR^384 (Molecular Devices) plate reader. Calcium entry is initiated by adding 5 μl of 10× CaCl2 (10 mM) in HBSS, and changes in cellular fluorescence are measured with the FLIPR^384 plate reader. In each well, the magnitude of the fluorescence signal as a result of calcium entry into the cell is determined by calculating the difference between the peak fluorescence signal measured after calcium addition and the initial baseline fluorescence signal (designated Peak-Basal). IC50 values are typically calculated as the concentration that inhibited 50% of the Peak-Basal signal (Table A).

T1 sequence (Q96D31 whole entry): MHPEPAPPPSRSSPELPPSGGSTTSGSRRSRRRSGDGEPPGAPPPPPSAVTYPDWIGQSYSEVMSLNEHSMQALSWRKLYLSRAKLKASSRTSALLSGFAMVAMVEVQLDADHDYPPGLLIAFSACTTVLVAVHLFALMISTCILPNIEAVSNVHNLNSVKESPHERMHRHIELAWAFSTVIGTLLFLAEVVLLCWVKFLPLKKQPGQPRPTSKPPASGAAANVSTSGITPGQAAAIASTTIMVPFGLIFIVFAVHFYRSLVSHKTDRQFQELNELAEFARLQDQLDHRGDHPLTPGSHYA

| Structure (SMILES) | IC50 ([1]; Table iv) [nM] | IC50 ([2]; Table iv) [nM] | IC50 ([1]; Table iii) [nM] | IC50 ([2]; Table iii) [nM] | also measured |
| --- | --- | --- | --- | --- | --- |
| Cc1cc2c(cc1-c1ccc(NC(=O)c3c(C)cccc3F)cc1F)OC(F)(F)O2 | < 600 | > 1200 |  |  |  |
| Cc1cccc(F)c1C(=O)Nc1ccc(-c2cn(C(F)F)nc2C)c(F)c1 | < 600 | < 600 |  |  |  |
| Cn1nc(C(F)(F)F)cc1-c1ccc(NCc2c(F)cc(F)cc2F)cc1 |  |  | < 600 | < 600 |  |
| Cn1nc(C(F)(F)F)cc1-c1ccc(NCc2c(F)cccc2F)cc1 |  |  | < 600 | < 600 |  |
| Cc1nn(C(F)F)cc1-c1ccc(NCc2c(F)ccc(F)c2F)cc1 |  |  | < 600 | < 600 |  |
| CCn1nc(C(F)(F)F)cc1-c1ccc(NCc2c(F)cccc2F)cc1 |  |  | < 600 | < 600 |  |
| Cc1nc(C(F)(F)F)cn1-c1ccc(NCc2c(F)cc(F)cc2F)cc1F |  |  | < 600 | < 600 |  |
| Cc1cccc(F)c1CNc1ccc(-c2cn(C(F)F)nc2C)cc1 |  |  | < 600 | < 600 |  |
| Cn1nc(C(F)(F)F)cc1-c1ccc(NC(=O)c2c(F)cccc2F)cc1 | < 600 | < 600 |  |  |  |
| Cn1nc(C(F)(F)F)cc1-c1ccc(NC(=O)c2ccc(F)cc2F)cc1 | < 600 | < 600 |  |  |  |
| Cc1nc(C(F)(F)F)cn1-c1ccc(NCc2c(F)ccc(F)c2F)cc1 |  |  | < 600 | < 600 |  |
| Cn1nc(C(F)(F)F)cc1-c1ccc(NC(=O)c2ccccc2F)c(F)c1 |  |  |  |  | RBL-2H3 (IC50, μmol) ([1]; Table iv): —; Orai1/STIM1 (IC50, μmol) ([2]; Table iv): Max inh. <50% |
| Cn1nc(C(F)(F)F)cc1-c1ccc(NC(=O)c2ccncc2F)cc1F | < 600 | < 600 |  |  |  |
| Cc1cc2c(cc1-c1ccc(NCc3c(F)cccc3F)cc1)OC(F)(F)O2 |  |  | < 600 | > 1200 |  |
| Cn1nc(C(F)(F)F)cc1-c1ccc(NCc2c(F)cncc2F)cc1F |  |  | < 600 | < 600 |  |
| Cn1nc(C(F)(F)F)cc1-c1ccc(NC(=O)c2c(F)cc(F)cc2F)cc1F | < 600 | < 600 |  |  |  |
| Cc1nc(C(F)(F)F)cn1-c1ccc(NC(=O)c2c(F)ccc(F)c2F)cc1F | < 600 | > 1200 |  |  |  |
| Cc1sc(C(F)(F)F)nc1-c1ccc(NCc2c(F)cc(F)cc2F)cc1 |  |  | < 600 | < 600 |  |
| Cn1nc(C(F)(F)F)cc1-c1c(F)cc(NCc2ccc(F)cc2F)cc1F |  |  | < 600 |  | Orai1/STIM1 (IC50, μmol) ([2]; Table iii): — |
| CCn1nc(C(F)(F)F)cc1-c1ccc(NC(=O)c2ccccc2F)cc1 | < 600 | < 600 |  |  |  |
| Cc1nnsc1C(=O)Nc1ccc(-n2nc(C(F)(F)F)cc2C)cc1 | < 600 | 600 to 1200 |  |  |  |
| Cn1nc(C(F)(F)F)cc1-c1ccc(NCc2c(F)cncc2F)cc1 |  |  | < 600 | < 600 |  |
| Cc1nc(C(F)(F)F)cn1-c1ccc(NCc2c(F)cc(F)cc2F)cc1 |  |  | < 600 | < 600 |  |
| Cc1sc(C(F)(F)F)nc1-c1ccc(NC(=O)c2c(F)cc(F)cc2F)cc1 | < 600 | < 600 |  |  |  |
| CCn1nc(C(F)(F)F)cc1-c1ccc(NC(=O)c2c(F)cccc2F)cc1 | < 600 | < 600 |  |  |  |
| Fc1cncc(F)c1CNc1ccc(-n2nc(C(F)(F)F)cc2C(F)(F)F)cc1 |  |  | < 600 | 600 to 1200 |  |
| Cn1nc(C(F)(F)F)cc1-c1ccc(NCc2ccncc2F)cc1F |  |  | < 600 | < 600 |  |
| Cc1cc(C(F)(F)F)nn1-c1ccc(NC(=O)c2ccc(F)cc2F)cc1 | < 600 | < 600 |  |  |  |
| O=C(Nc1ccc(-n2nc(C(F)(F)F)cc2C(F)(F)F)cc1)c1ccccc1F | < 600 |  |  |  |  |
